# Measured values taken from ChEMBL document CHEMBL4376853, “Synthesis and structure-activity relationship studies of α-naphthoflavone derivatives as CYP1B1 inhibitors” (Eur J Med Chem, 2020).
# Biological target: T1, Cytochrome P450 1A2 (Homo sapiens, UniProt P05177)
# T1 sequence (P05177 whole entry): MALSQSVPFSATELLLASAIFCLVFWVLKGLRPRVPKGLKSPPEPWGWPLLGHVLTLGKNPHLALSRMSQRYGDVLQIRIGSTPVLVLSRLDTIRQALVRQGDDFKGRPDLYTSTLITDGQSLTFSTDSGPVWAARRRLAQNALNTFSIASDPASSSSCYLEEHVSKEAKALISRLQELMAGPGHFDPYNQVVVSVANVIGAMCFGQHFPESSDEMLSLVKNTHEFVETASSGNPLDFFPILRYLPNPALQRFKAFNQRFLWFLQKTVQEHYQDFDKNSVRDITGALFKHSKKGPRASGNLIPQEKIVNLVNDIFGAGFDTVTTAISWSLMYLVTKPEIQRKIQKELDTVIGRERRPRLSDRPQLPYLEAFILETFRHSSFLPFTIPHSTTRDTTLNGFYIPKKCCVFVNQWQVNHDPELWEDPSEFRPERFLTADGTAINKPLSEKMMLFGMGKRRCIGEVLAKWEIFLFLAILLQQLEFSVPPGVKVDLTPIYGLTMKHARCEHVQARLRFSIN
# Assay: Inhibition of human recombinant CYP1A2 using 7-ethoxyresorufin as substrate in presence of glucose-6-phosphate, glucose-6-phosphate dehydrogenase and NADPH-generating system incubated for 50 mins by fluorometry
# Format: ADME
row,Structure (SMILES),IC50 [nM]
1,O=c1cc(-c2ccccc2F)oc2c1ccc1ccccc12,23.7
2,O/N=c1\cc(-c2cccc(Cl)c2)oc2c1ccc1ccccc12,804
3,COc1cccc(-c2cc(=O)c3ccc4ccccc4c3o2)c1,178
4,O=c1cc(-c2cccc(Cl)c2)sc2c1ccc1ccccc12,296
5,O/N=c1\cc(-c2ccc(Cl)cc2)oc2c1ccc1ccccc12,75.2
6,O=c1cc(-c2ccc(Cl)cc2)oc2c1ccc1ccccc12,10.6
7,O=c1cc(-c2ccccc2Cl)oc2c1ccc1ccccc12,113
8,COc1cccc(-c2cc(=S)c3ccc4ccccc4c3o2)c1,305
9,O=c1cc(-c2cccnc2)oc2c1ccc1ccccc12,23.2
10,O=c1cc(-c2cccc(F)c2)oc2c1ccc1ccccc12,62.2
11,Fc1ccc(-c2cc(=S)c3ccc4ccccc4c3o2)cc1,42.8
12,S=c1cc(-c2ccccc2)oc2c1ccc1ccccc12,179
13,S=c1cc(-c2cccc(Cl)c2)oc2c1ccc1ccccc12,304
14,O=c1cc(-c2ccc(F)c(F)c2)oc2c1ccc1ccccc12,28.6
15,Fc1cccc(-c2cc(=S)c3ccc4ccccc4c3o2)c1,134
16,O=c1cc(-c2ccc3ccccc3c2)oc2c1ccc1ccccc12,> 1000
17,O=c1cc(-c2ccccn2)oc2c1ccc1ccccc12,25.1
18,O=c1cc(-c2cc(Cl)cc(Cl)c2)oc2c1ccc1ccccc12,157
19,CN1CCN(c2cccc(-c3cc(=O)c4ccc5ccccc5c4o3)c2)CC1,762

# Biological target: T2, Cytochrome P450 1A1 (Homo sapiens, UniProt P04798)
# T2 sequence (P04798 whole entry): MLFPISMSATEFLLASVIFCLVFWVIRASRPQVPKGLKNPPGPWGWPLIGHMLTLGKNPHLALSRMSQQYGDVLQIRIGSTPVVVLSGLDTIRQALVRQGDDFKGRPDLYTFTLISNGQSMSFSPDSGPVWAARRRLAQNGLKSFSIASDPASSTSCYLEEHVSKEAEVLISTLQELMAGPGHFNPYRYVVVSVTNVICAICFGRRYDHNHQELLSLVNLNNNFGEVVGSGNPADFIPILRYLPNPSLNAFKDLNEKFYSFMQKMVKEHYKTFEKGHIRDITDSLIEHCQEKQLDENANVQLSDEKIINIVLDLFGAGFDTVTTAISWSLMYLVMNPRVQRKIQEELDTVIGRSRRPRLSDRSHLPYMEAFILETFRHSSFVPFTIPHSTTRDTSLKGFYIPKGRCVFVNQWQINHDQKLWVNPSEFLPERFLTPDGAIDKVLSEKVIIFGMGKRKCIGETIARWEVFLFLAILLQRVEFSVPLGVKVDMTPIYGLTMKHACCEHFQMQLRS
# Assay: Inhibition of human recombinant CYP1A1 using 7-ethoxyresorufin as substrate in presence of glucose-6-phosphate, glucose-6-phosphate dehydrogenase and NADPH-generating system incubated for 15 mins by fluorometry
# Format: ADME
row,Structure (SMILES),IC50 [nM]
1,O=c1cc(-c2ccccc2F)oc2c1ccc1ccccc12,12.2
2,O/N=c1\cc(-c2cccc(Cl)c2)oc2c1ccc1ccccc12,94.9
3,COc1cccc(-c2cc(=O)c3ccc4ccccc4c3o2)c1,35.8
4,O=c1cc(-c2cccc(Cl)c2)sc2c1ccc1ccccc12,13.6
5,O/N=c1\cc(-c2ccc(Cl)cc2)oc2c1ccc1ccccc12,44.4
6,O=c1cc(-c2ccc(Cl)cc2)oc2c1ccc1ccccc12,4.3
7,O=c1cc(-c2ccccc2Cl)oc2c1ccc1ccccc12,228
8,COc1cccc(-c2cc(=S)c3ccc4ccccc4c3o2)c1,72.8
9,O=c1cc(-c2cccnc2)oc2c1ccc1ccccc12,25.3
10,O=c1cc(-c2cccc(F)c2)oc2c1ccc1ccccc12,16.7
11,Fc1ccc(-c2cc(=S)c3ccc4ccccc4c3o2)cc1,12.3
12,S=c1cc(-c2ccccc2)oc2c1ccc1ccccc12,65.4
13,S=c1cc(-c2cccc(Cl)c2)oc2c1ccc1ccccc12,31.7
14,O=c1cc(-c2ccc(F)c(F)c2)oc2c1ccc1ccccc12,11.8
15,Fc1cccc(-c2cc(=S)c3ccc4ccccc4c3o2)c1,25.1
16,O=c1cc(-c2ccc3ccccc3c2)oc2c1ccc1ccccc12,46.4
17,O=c1cc(-c2ccccn2)oc2c1ccc1ccccc12,37.9
18,O=c1cc(-c2cc(Cl)cc(Cl)c2)oc2c1ccc1ccccc12,25.5
19,CN1CCN(c2cccc(-c3cc(=O)c4ccc5ccccc5c4o3)c2)CC1,34.6

# Biological target: T3, Cytochrome P450 1B1 (Homo sapiens, UniProt Q16678)
# T3 sequence (Q16678 whole entry): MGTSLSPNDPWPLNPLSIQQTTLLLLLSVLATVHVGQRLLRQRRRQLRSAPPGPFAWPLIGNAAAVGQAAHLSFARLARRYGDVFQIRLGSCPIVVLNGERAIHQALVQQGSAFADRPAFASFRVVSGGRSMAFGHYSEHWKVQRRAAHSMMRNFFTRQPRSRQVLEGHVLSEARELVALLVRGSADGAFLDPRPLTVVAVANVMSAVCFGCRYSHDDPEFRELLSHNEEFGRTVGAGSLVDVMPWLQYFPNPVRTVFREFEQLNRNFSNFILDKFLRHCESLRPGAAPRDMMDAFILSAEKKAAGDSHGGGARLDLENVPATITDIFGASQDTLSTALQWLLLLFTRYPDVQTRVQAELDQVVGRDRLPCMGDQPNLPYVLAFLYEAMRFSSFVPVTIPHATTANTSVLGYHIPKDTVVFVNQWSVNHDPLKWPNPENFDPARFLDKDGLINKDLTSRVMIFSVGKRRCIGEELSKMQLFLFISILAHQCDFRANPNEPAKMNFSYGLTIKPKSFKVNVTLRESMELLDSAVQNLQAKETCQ
# Assay: Inhibition of human recombinant CYP1B1 using 7-ethoxyresorufin as substrate in presence of glucose-6-phosphate, glucose-6-phosphate dehydrogenase and NADPH-generating system incubated for 35 mins by fluorometry
row,Structure (SMILES),IC50 [nM]
1,O=c1cc(-c2ccccc2F)oc2c1ccc1ccccc12,3.3
2,O/N=c1\cc(-c2cccc(Cl)c2)oc2c1ccc1ccccc12,10.4
3,COc1cccc(-c2cc(=O)c3ccc4ccccc4c3o2)c1,3.8
4,O=c1cc(-c2cccc(Cl)c2)sc2c1ccc1ccccc12,40.5
5,O/N=c1\cc(-c2ccc(Cl)cc2)oc2c1ccc1ccccc12,8
6,O=c1cc(-c2ccc(Cl)cc2)oc2c1ccc1ccccc12,4.2
7,O=c1cc(-c2ccccc2Cl)oc2c1ccc1ccccc12,21.6
8,COc1cccc(-c2cc(=S)c3ccc4ccccc4c3o2)c1,9.1
9,O=c1cc(-c2cccnc2)oc2c1ccc1ccccc12,6.2
10,O=c1cc(-c2cccc(F)c2)oc2c1ccc1ccccc12,2.2
11,Fc1ccc(-c2cc(=S)c3ccc4ccccc4c3o2)cc1,13.3
12,S=c1cc(-c2ccccc2)oc2c1ccc1ccccc12,7.8
13,S=c1cc(-c2cccc(Cl)c2)oc2c1ccc1ccccc12,9.4
14,O=c1cc(-c2ccc(F)c(F)c2)oc2c1ccc1ccccc12,5.6
15,Fc1cccc(-c2cc(=S)c3ccc4ccccc4c3o2)c1,5
16,O=c1cc(-c2ccc3ccccc3c2)oc2c1ccc1ccccc12,48.4
17,O=c1cc(-c2ccccn2)oc2c1ccc1ccccc12,3.5
18,O=c1cc(-c2cc(Cl)cc(Cl)c2)oc2c1ccc1ccccc12,4.2
19,CN1CCN(c2cccc(-c3cc(=O)c4ccc5ccccc5c4o3)c2)CC1,24.6

# Organism: Homo sapiens
# Assay: Selectivity index, ratio of IC50 for human recombinant CYP1A2 to IC50 for human recombinant CYP1B1 using 7-ethoxyresorufin as substrate in presence of glucose-6-phosphate, glucose-6-phosphate dehydrogenase and NADPH-generating system by fluorometry
row,Structure (SMILES),Ratio IC50
1,O=c1cc(-c2ccccc2F)oc2c1ccc1ccccc12,7.2
2,O/N=c1\cc(-c2cccc(Cl)c2)oc2c1ccc1ccccc12,77.3
3,COc1cccc(-c2cc(=O)c3ccc4ccccc4c3o2)c1,46.8
4,O=c1cc(-c2cccc(Cl)c2)sc2c1ccc1ccccc12,7.3
5,O/N=c1\cc(-c2ccc(Cl)cc2)oc2c1ccc1ccccc12,9.4
6,O=c1cc(-c2ccc(Cl)cc2)oc2c1ccc1ccccc12,2.5
7,O=c1cc(-c2ccccc2Cl)oc2c1ccc1ccccc12,5.2
8,COc1cccc(-c2cc(=S)c3ccc4ccccc4c3o2)c1,33.5
9,O=c1cc(-c2cccnc2)oc2c1ccc1ccccc12,3.7
10,O=c1cc(-c2cccc(F)c2)oc2c1ccc1ccccc12,28.3
11,Fc1ccc(-c2cc(=S)c3ccc4ccccc4c3o2)cc1,3.2
12,S=c1cc(-c2ccccc2)oc2c1ccc1ccccc12,22.9
13,S=c1cc(-c2cccc(Cl)c2)oc2c1ccc1ccccc12,32.4
14,O=c1cc(-c2ccc(F)c(F)c2)oc2c1ccc1ccccc12,5.1
15,Fc1cccc(-c2cc(=S)c3ccc4ccccc4c3o2)c1,26.8
16,O=c1cc(-c2ccc3ccccc3c2)oc2c1ccc1ccccc12,> 20.7
17,O=c1cc(-c2ccccn2)oc2c1ccc1ccccc12,7.2
18,O=c1cc(-c2cc(Cl)cc(Cl)c2)oc2c1ccc1ccccc12,37.4
19,CN1CCN(c2cccc(-c3cc(=O)c4ccc5ccccc5c4o3)c2)CC1,31

# Organism: Homo sapiens
# Assay: Selectivity index, ratio of IC50 for human recombinant CYP1A1 to IC50 for human recombinant CYP1B1 using 7-ethoxyresorufin as substrate in presence of glucose-6-phosphate, glucose-6-phosphate dehydrogenase and NADPH-generating system by fluorometry
row,Structure (SMILES),Ratio IC50
1,O=c1cc(-c2ccccc2F)oc2c1ccc1ccccc12,3.7
2,O/N=c1\cc(-c2cccc(Cl)c2)oc2c1ccc1ccccc12,9.1
3,COc1cccc(-c2cc(=O)c3ccc4ccccc4c3o2)c1,9.4
4,O=c1cc(-c2cccc(Cl)c2)sc2c1ccc1ccccc12,0.3
5,O/N=c1\cc(-c2ccc(Cl)cc2)oc2c1ccc1ccccc12,5.6
6,O=c1cc(-c2ccc(Cl)cc2)oc2c1ccc1ccccc12,1
7,O=c1cc(-c2ccccc2Cl)oc2c1ccc1ccccc12,10.6
8,COc1cccc(-c2cc(=S)c3ccc4ccccc4c3o2)c1,8
9,O=c1cc(-c2cccnc2)oc2c1ccc1ccccc12,4.1
10,O=c1cc(-c2cccc(F)c2)oc2c1ccc1ccccc12,7.6
11,Fc1ccc(-c2cc(=S)c3ccc4ccccc4c3o2)cc1,0.9
12,S=c1cc(-c2ccccc2)oc2c1ccc1ccccc12,8.4
13,S=c1cc(-c2cccc(Cl)c2)oc2c1ccc1ccccc12,3.4
14,O=c1cc(-c2ccc(F)c(F)c2)oc2c1ccc1ccccc12,2.1
15,Fc1cccc(-c2cc(=S)c3ccc4ccccc4c3o2)c1,5
16,O=c1cc(-c2ccc3ccccc3c2)oc2c1ccc1ccccc12,1
17,O=c1cc(-c2ccccn2)oc2c1ccc1ccccc12,10.8
18,O=c1cc(-c2cc(Cl)cc(Cl)c2)oc2c1ccc1ccccc12,6.1
19,CN1CCN(c2cccc(-c3cc(=O)c4ccc5ccccc5c4o3)c2)CC1,1.4
